In patent publication US20250090626A1, “NEW PEPTIDE AND USES THEREOF” (Neo Cremar Co., Ltd., priority 2021, published 2025):
No end group written: not given here.

Experiments:
C2C12 cells [1] = experiment: C2C12 cell proliferation (MTT method); format: cell-based, mouse; settings: C2C12, peptide 1000 nM, 1 day, MTT; FIG. 4
Description: C2C12 cells, a mouse myoblast line, were cultured in Dulbecco's Modified Eagle's Medium (DMEM)+10% fetal bovine serum (FBS)+1% penicillin/streptomycin (P/S). To validate the effect of MIF peptide, C2C12 cells (2×10^3 cells/ml) were placed in a 12 well cell culture dish and attached for 24 hours, and MIF peptide (1000 nM) was treated for 1 day to observe cell proliferation by MTT method. The medium was replaced every 2 days, and the cells were cultured at 37° C.
To validate cell proliferation, the culture medium of the cells was removed, the cells were washed with DMEM, 500 μl of MTT reagent (0.5 mg/ml) dissolved in phosphate buffered saline (PBS) was added to each well, and the cells were left at 37° C. for 1 hour. The reaction solution was removed, and 1000 μl of DMSO was added to each well. Purple formazan crystals were completely dissolved in DMSO, and the absorbance was measured at 540 nm.

C2C12 cells [2] = experiment: Myodifferentiation, Giemsa staining, root canal formation and fusion index; format: cell-based, mouse; settings: 3 days
Description: When C2C12 cells were 70% grown, media were replaced with myodifferentiation medium added with MSTN protein (1 ng), Ac-MIF1 (1000 nM), and Ac-MIF1 (1000 nM)+MSTN protein (1 ng) from proliferation medium, followed by culture for 3 days.
When the cells grew more than 70% for differentiation of myoblasts into myocytes, they were cultured for 3 days by replacing with a differentiation medium (DMEM+2% FBS+1% P/S). The medium was replaced once daily, and the cells were cultured at 37° C.
The cell medium was removed, and the cells were washed with PBS. After washing, a methanol:PBS reagent in a 1:1 volume ratio was treated, followed by fixation for 2 minutes. Additionally, after a methanol:PBS reagent in a 2:1 volume ratio was added, fixation was followed for additional 2 minutes. After 2 minutes, 0.04% Giemsa reagent was added, and then the cells were left for 30 minutes, washed with PBS after 30 minutes, and observed under a microscope, with 3 photographs taken for each cell (300×). In the photographs taken, the number of fused nuclei in the root canal cells was counted, the number of nuclei of total cells was counted, and the number of fused nuclei was divided by the number of nuclei of the total cells to obtain the % value.

C57BL/6 mice = experiment: Myoregeneration effect upon injection of Ac-MIF1 peptide in cardiotoxin-damaged gastrocnemius; format: in vivo, mouse
Excerpt: The male C57BL/6 mice were purchased from Dae Han Bio Link Co., Ltd., four of which per cage were kept in a temperature-controlled room with a 12-hour light cycle. The animals were fed with a standard rodent diet containing 4.0% (wt/wt) total fat (Rodent NIH-31 Open Formula Auto; Zeigler Bros., Inc., Gardners, PA, USA) and water. All experiments involving animals complied with the guidelines (YUMC-AEC2015-006) issued by the Animal Control Committee of Youngnam University's Animal Research Institute. The MSTN knock-out mouse was provided by a laboratory at Seoul National University. Normal, MSTN+/− (heterozygous), and MSTN−/− (homozygous) adipose tissues were fixed by collecting from 6-week-old mice and stored at −80° C. until required for analysis.
Muscle tissues containing paraffin was subjected to deparaffinization with xylene and ethanol and hydration, respectively, and the tissue was soaked in 0.3% hydrogen peroxide water (H2O2)/methanol for 15 minutes to stop endogenous peroxidase activity. Then, tissues were stained with hematoxylin/eosin for morphological observation or reacted with 1% normal goat serum at room temperature for 1 hour to block a reaction with non-specific antibodies, followed by a reaction with the primary antibody (1:50) at 4° C. for over 16 hours. After 16 hours, washing was performed 3 times with PBS, followed by a reaction with secondary antibody (1:100) with HRP conjugated at room temperature for 1 hour. Horse radish peroxidase-conjugated streptavidin was added to detect the expression of the protein, followed by observation under a microscope.
In order to observe the myoregeneration effect following MIF peptide injection, mice were injected with Ac-MIF 1 peptide and injected/uninjected with cardiotoxin (hereinafter referred to as CTX) into the muscle, followed by observation of the morphology and regeneration of the muscle. A day after C57BL/6 mice were injected with Ac-MIF1 peptide (1.125 mM), […] cardiotoxin was injected into the gastrocnemius. Muscle tissues were sampled 7 days after CTX injection.
Paraffin-embedded muscle sections were deparaffinized using xylene, rehydrated using a concentration gradient of ethanol, stained with hematoxylin and eosin, observed under an optical microscope, magnified at 400× scale, and photographed, followed by measurement of the diameter of muscle fibers using Image J software.

3T3L1 cells = experiment: Adipodifferentiation of 3T3L1 cells, Oil red O staining; format: cell-based, mouse; settings: 3T3L1, adipocyte-induced differentiation medium with Ac-MIF1, 4 days; FIG. 13B
Description: For differentiation of 3T3L1 cells into adipocytes, when the cells grew about 100% or more, they were replaced with differentiation medium (DMEM+10% FBS+1% P/S+10 ug/ml insulin+1 μM dexametazone+0.5 μM IBMX (3-isobutyl-1-methylxanthine)) and cultured for 2 days. After 2 days, MIF was treated in a medium including 10 ug/ml insulin to induce cell differentiation.
3T3L1 cells were treated with peptides and differentiated for 4 days, then the medium was removed, and the cells were washed with normal saline, treated with 10% formaldehyde, and left for 10 minutes. After 10 minutes, Oil-red O staining agents (6 ([…] Oil-red O reagent+1 ml 100% isopropanol):4 (distilled water)) were treated and left for 1 hour. After 1 hour, cells were washed with normal saline and then observed under a microscope. To measure the Oil-red O stained in the intracellularly differentiated cells, 100% isopropanol was added and collected, followed by measurement at 510 nm.

[3] = muscle injected with Ac-MIF1 peptide, 7 days after CTX, FIG. 10A
[4] = muscle injected with Ac-MIF1 peptide, 7 days after CTX, FIG. 10B

Substance: Ac-VDFEAFWDWG [Ac-MIF1, MIF1 with N-terminus acetylated, 10 mer]
- cell proliferation, increase compared to cells without peptide treatment (C2C12 cells [1]): 24%
- fusion index, increase compared to untreated cells (C2C12 cells [2]; C2C12, differentiation medium including peptide): 11%
- root canal formation compared to untreated cells (C2C12 cells [2]; C2C12, differentiation medium): increased
- fusion index compared to untreated cells (C2C12 cells [2]; C2C12, muscle differentiation medium, Ac-MIF1 1000 nM, FIG. 9): increased
- muscle weight compared to muscle without injection (C57BL/6 mice; 7 days after CTX injection): no significant difference
- muscle weight (C57BL/6 mice; CTX + Ac-MIF 1, gastrocnemius, 7 days after CTX injection): 0.140 ± 0.003 g
- MSTN mRNA expression in muscle (C57BL/6 mice; [3]): increased
- MYL2 mRNA expression in muscle (C57BL/6 mice; [3]): increased
- MYOD mRNA expression in muscle (C57BL/6 mice; [3]): increased
- MYL2 protein expression in muscle (C57BL/6 mice; [4]): increased
- MYOD protein expression in muscle (C57BL/6 mice; [4]): increased
- MYOG protein expression in muscle (C57BL/6 mice; [4]): increased
- Pax7 protein expression in muscle (C57BL/6 mice; [4]): increased
- diameter of the muscle fibers compared to without peptide injection (C57BL/6 mice; muscle injected with Ac-MIF1 peptide, 7 days after CTX, FIG. 10C): increased
- fat accumulation (Oil-red O intensity), decrease compared to cells without peptide treatment (3T3L1 cells): 8%
